Data from patent publication US20160143944A1, “ANTIMICROBIAL COMPOSITIONS COMPRISING HYPOCHLOROUS ACID AND SILVER” (PURICOE, INC., priority 2013, published 2016).

Tested on: Pseudomonas aeruginosa biofilm
Test: in vitro wound biofilm model (collagen matrix), biocidal effect
Format: cell-based
Details: 20 min at 35° C., 24 h biofilm in collagen matrix
Procedure: A biofilm test was conducted using hypochlorous acid solutions containing either 200 ppm or 600 ppm AFC. A solution containing a […] combination of silver chelate (30 ppm) and hypochlorous acid (600 ppm) which yielded a final concentration of 200 ppm AFC was also tested. Specifically, the biocidal effects of the solutions were tested using an in vitro wound biofilm model as described in […] et al. (2009), Molnlycke Healthcare. Briefly, a collagen solution was prepared in simulated wound fluid and the collagen was allowed to polymerize at 35° C. for one hour. The collagen matrix was subsequently innoculated with approximately 10^4 colony forming units (CFU) of Pseudomonas aeruginosa and incubated for twenty-four hours. The hypochlorous acid solutions were added to each matrix and incubated at 35° C. for twenty minutes. The tubes were centrifuged to separate the test solutions from the matrices. Subsequently, each matrix was digested with collagenase, washed and any surviving cells were recovered. A biofilm test was conducted to compare the biocidal effects of various hypochlorous acid solutions with or without silver additives, either in form of potassium silver citrate or silver chelate. Specifically, the effects of the solutions on P. aeruginosa biofilm were assessed using an in vitro wound biofilm model as described above. […]

OCl [hypochlorous acid solution, hypochlorous acid]
log reduction of P. aeruginosa colony forming units (CFU) (200 ppm AFC hypochlorous acid solution): one | log reduction of P. aeruginosa colony forming units (CFU) (600 ppm AFC hypochlorous acid solution): seven
